Test results reported in patent US20080200403A1, “9A-Carbamoyl and Thiocarbamoyl Azalides with Anti-Inflammatory Activity” (GLAXOSMITHKLINE, priority 2005, published 2008).

Tests used:
granulocytes = test: Accumulation in granulocytes (LC-MS); format: in vitro ADME; conditions: 180 min
Procedure: Granulocytes were obtained from heparinized whole blood using density gradient centrifugation. Erythrocytes were sedimented on 3% dextran T-500 (Amersham Pharmacia Biotech AB, Uppsala, Sweden). Leukocytes were centrifuged on Ficoll (Amersham Pharmacia Biotech AB, Uppsala, Sweden) for 35 min at 600 g at 20° C. The pellet of granulocytes was cleared from remaining erythrocytes by a brief hypotonic lysis.
7.5×10^6 granulocytes, isolated as described above, were suspended in 3 mL of RPMI 1640 (Institute of Immunology, Croatia) containing 10 μM of tested macrolide. Samples were incubated at 37° C. for 180 min. Following incubation, the samples were centrifuged through the layer of Poly(dimethylsiloxane-co-diphenylsiloxane), dihydroxy terminated—silicone oil (Aldrich Chemical Company, Milwaukee, USA). The pellet was resuspended in 0.5% Triton X-100 (Sigma, St. Louis, USA) in deionized water (MilliQ, Millipore Corporation, Bedford, USA). The suspension was sonicated, proteins were precipitated with acetonitrile, and the concentration of macrolide in the supernatants was determined by liquid chromatography-mass spectrometry (LC-MS).
Intracellular concentrations of the test compounds were calculated from the mean cell number recovered after centrifuging through silicone oil. According to the literature, about 1 million neutrophils is considered to have a volume of 0.24 μL (Vazifeh et al., Antimicrob Agents Chemo. 1997; 41: 2099-2107). To estimate the extent of macrolide accumulation, the intracellular to extracellular concentration ratio (I/E) was calculated, where E (due to a large volume of incubation medium) was taken as constant (10 μM). Results are expressed relative to azithromycin according to the following equation: % of azithromycin uptake=(I/E of a substance/I/E of azithromycin)×100. I/E values obtained for azithromycin were 164±10.

Male BALB/cJ mice = test: Lung neutrophilia induced by bacterial lipopolysaccharide in male BALB/cJ mice; format: in vivo; conditions: single 5 mg dose i.p., intranasal LPS, BALF about 24 hours after LPS, compared to positive control
Procedure: Male BALB/cJ mice (Iffa Credo, France), with average weight ˜30 g were randomly grouped (n=7 in testing group, 8 in positive control, 7 in negative control). Mice were administered intraperitoneally (i.p.) a single 5 mg dose of test compound. Two hours after administration, 2 μg of bacterial lipopolysaccharide (LPS), dissolved in PBS in a volume of 60 μL, was intranasally administered to all experimental groups except the negative control group, which received the same volume (60 μL) of vehicle PBS. Animals were sacrificed approximately 24 hours after application of LPS in order to obtain bronchoalveolar lavage fluid (BALF), which was used to determine concentrations of IL-6 and TNF-α, absolute number of cells, and the percentage of neutophils in BALF. Results are expressed as percentage of decrease of total cell number, relative number of neutrophils, and TNF-α and IL-6 concentration in BALF of treated animals compared to positive control (LPS stimulated, but untreated animals).
Besides accumulation of inflammatory cells in BALF, the extent and anatomic site of pulmonary inflammation induced by LPS was assessed 24 hours after PBS or LPS exposure. Accumulation of granulocytes and mononuclear cells in peribronchial (PB) and perivascular (PV) lung tissue areas and in alveolar spaces was monitored following sacrifice of the animals.

| Compound | % of azithromycin uptake (granulocytes; 10 μM) | intracellular to extracellular concentration ratio (I/E) (granulocytes; 10 μM) | percentage of decrease of IL-6 concentration in BALF (Male BALB/cJ mice) | percentage of decrease of TNF-α concentration in BALF (Male BALB/cJ mice) | percentage of decrease of relative number of neutrophils (% of neutrophils) in BALF (Male BALB/cJ mice) | percentage of decrease of total cell number in BALF (Male BALB/cJ mice) | % of azithromycin uptake (granulocytes; granulocytes, 10 μM macrolide, 37° C., (I/E of substance/I/E of azithromycin)×100) |
| --- | --- | --- | --- | --- | --- | --- | --- |
| CC[C@H]1OC(=O)[C@H](C)[C@@H](O[C@H]2C[C@@](C)(OC)[C@@H](O)[C@H](C)O2)[C@H](C)[C@@H](O[C@@H]2O[C@H](C)C[C@H](N(C)C)[C@H]2O)[C@](C)(O)C[C@@H](C)CN(C)[C@H](C)[C@@H](O)[C@]1(C)O [Azithromycin, azithromycin, reference compound] | 100% | 164±10 | 72 | 66 | 37 | 77 | – |
| CC[C@H]1OC(=O)[C@H](C)[C@@H](O[C@H]2C[C@@](C)(OC)[C@@H](O)[C@H](C)O2)[C@H](C)[C@@H](O[C@@H]2O[C@H](C)C[C@H](N(C)C)[C@H]2O)[C@](C)(OC)C[C@@H](C)C(=O)[C@H](C)[C@@H](O)[C@]1(C)O [Clarithromycin, clarithromycin, reference compound] | – | – | 60 | 78 | 36 | 77 | – |
| CCC1OC(=O)C(C)C(O)C(C)C(OC2OC(C)CC(N(C)C)C2O)C(C)(O)CC(C)CN(C(=S)NCc2ccccc2)C(C)C(O)C1(C)O (stereo not drawn) [Compound 1] | – | – | 28 | 41 | 9 | 50 | – |
| CCC1OC(=O)C(C)C(OC2CC(C)(OC)C(O)C(C)O2)C(C)C(OC2OC(C)CC(N(C)C)C2O)C(C)(O)CC(C)CN(C(=S)Nc2cccc(F)c2)C(C)C(O)C1(C)O (stereo not drawn) [Compound 3] | – | – | – | – | – | – | 93% |
